Key:
[1] = test system: Trichophyton mentagrophytes; assay: microbe, parasite or virus in culture; format: functional; conditions: Trichophyton mentagrophytes, 445, 72 h
Description: Antifungal activity against Trichophyton mentagrophytes 445 after 72 hrs by modified standard CSLI M27-A2 method

[2] = test system: Aspergillus fumigatus; assay: microbe, parasite or virus in culture; format: functional; conditions: Aspergillus fumigatus, 231, 48 h
Description: Antifungal activity against Aspergillus fumigatus 231 after 48 hrs by modified standard CSLI M27-A2 method

[3] = test system: Klebsiella pneumoniae; assay: microbe, parasite or virus in culture; format: functional; conditions: D 11750/08, 24 h
Description: Antibacterial activity against Klebsiella pneumoniae D 11750/08 after 24 hrs by microdilution broth method

[4] = test system: Candida tropicalis; assay: microbe, parasite or virus in culture; format: functional; conditions: Candida tropicalis, 156, 24 h
Description: Antifungal activity against Candida tropicalis 156 after 24 hrs by modified standard CSLI M27-A2 method

[5] = test system: Trichophyton mentagrophytes; assay: microbe, parasite or virus in culture; format: functional; conditions: Trichophyton mentagrophytes, 445, 120 h
Description: Antifungal activity against Trichophyton mentagrophytes 445 after 120 hrs by modified standard CSLI M27-A2 method

[6] = test system: Pichia kudriavzevii; assay: Fungicidal activity against Candida krusei E28 after 48 hrs by modified standard CSLI M27-A2 method; format: functional; conditions: E28, 48 h
[7] = test system: Staphylococcus epidermidis; assay: Bactericidal activity against Staphylococcus epidermidis H 6966/08 after 48 hrs by microdilution broth method; format: functional; conditions: H 6966/08, 48 h, read-out: MBC>99.9
[8] = test system: Trichosporon asahii; assay: Fungicidal activity against Trichosporon asahii 1188 after 48 hrs by modified standard CSLI M27-A2 method; format: functional; conditions: Trichosporon asahii, 1188, 48 h
[9] = test system: Candida albicans; assay: Fungicidal activity against Candida albicans ATCC 44859 after 48 hrs by modified standard CSLI M27-A2 method; format: functional; conditions: ATCC 44859, 48 h
[10] = test system: Staphylococcus aureus; assay: microbe, parasite or virus in culture; format: functional; conditions: H 5996/08, 48 h
Description: Antibacterial activity against Staphylococcus aureus H 5996/08 after 48 hrs by microdilution broth method

[11] = test system: Staphylococcus aureus; assay: microbe, parasite or virus in culture; format: functional; conditions: CCM 4516/08, 48 h
Description: Antibacterial activity against Staphylococcus aureus CCM 4516/08 after 48 hrs by microdilution broth method

[12] = test system: Pseudomonas aeruginosa; assay: microbe, parasite or virus in culture; format: functional; conditions: CCM 1961, 72 h
Description: Antibacterial activity against Pseudomonas aeruginosa CCM 1961 after 72 hrs by microdilution broth method

[13] = test system: Pichia kudriavzevii; assay: Antifungal activity against Candida krusei E28 after 24 hrs by modified standard CSLI M27-A2 method; format: functional; conditions: E28, 24 h
[14] = Cytotoxicity against CHOK1 cells after 24 hrs by MTT assay; format: ADME, cell-based; conditions: Cricetulus griseus, CHO-K1, 24 h
[15] = test system: Lichtheimia corymbifera; assay: microbe, parasite or virus in culture; format: functional; conditions: Lichtheimia corymbifera, 272, 24 h
Description: Antifungal activity against Absidia corymbifera 272 after 24 hrs by modified standard CSLI M27-A2 method

[16] = test system: Escherichia coli; assay: microbe, parasite or virus in culture; format: functional; conditions: CCM 4517, 24 h
Description: Antibacterial activity against Escherichia coli CCM 4517 after 24 hrs by microdilution broth method

[17] = test system: Aspergillus fumigatus; assay: microbe, parasite or virus in culture; format: functional; conditions: Aspergillus fumigatus, 231, 24 h
Description: Antifungal activity against Aspergillus fumigatus 231 after 24 hrs by modified standard CSLI M27-A2 method

[18] = test system: Nakaseomyces glabratus; assay: Fungicidal activity against Candida glabrata 20/I after 48 hrs by modified standard CSLI M27-A2 method; format: functional
[19] = test system: Klebsiella pneumoniae; assay: Bactericidal activity against Klebsiella pneumoniae J 14368/08 after 48 hrs by microdilution broth method; format: functional; conditions: J 14368/08, 48 h, read-out: MBC>99.9
[20] = test system: Enterococcus sp.; assay: microbe, parasite or virus in culture; format: functional; conditions: J 14365/08, 48 h
Description: Antibacterial activity against Enterococcus sp. J 14365/08 after 48 hrs by microdilution broth method

[21] = test system: Enterococcus sp.; assay: microbe, parasite or virus in culture; format: functional; conditions: J 14365/08, 24 h
Description: Antibacterial activity against Enterococcus sp. J 14365/08 after 24 hrs by microdilution broth method

[22] = test system: Candida tropicalis; assay: microbe, parasite or virus in culture; format: functional; conditions: Candida tropicalis, 156, 48 h
Description: Antifungal activity against Candida tropicalis 156 after 48 hrs by modified standard CSLI M27-A2 method

[23] = test system: Klebsiella pneumoniae; assay: microbe, parasite or virus in culture; format: functional; conditions: J 14368/08, 24 h
Description: Antibacterial activity against Klebsiella pneumoniae J 14368/08 after 24 hrs by microdilution broth method

[24] = test system: Escherichia coli; assay: microbe, parasite or virus in culture; format: functional; conditions: CCM 4517, 48 h
Description: Antibacterial activity against Escherichia coli CCM 4517 after 48 hrs by microdilution broth method

[25] = test system: Aspergillus fumigatus; assay: Fungicidal activity against Aspergillus fumigatus 231 after 48 hrs by modified standard CSLI M27-A2 method; format: functional; conditions: Aspergillus fumigatus, 231, 48 h
[26] = test system: Klebsiella pneumoniae; assay: microbe, parasite or virus in culture; format: functional; conditions: J 14368/08, 48 h
Description: Antibacterial activity against Klebsiella pneumoniae J 14368/08 after 48 hrs by microdilution broth method

[27] = test system: Candida albicans; assay: microbe, parasite or virus in culture; format: functional; conditions: ATCC 44859, 48 h
Description: Antifungal activity against Candida albicans ATCC 44859 after 48 hrs by modified standard CSLI M27-A2 method

[28] = test system: Trichosporon asahii; assay: microbe, parasite or virus in culture; format: functional; conditions: Trichosporon asahii, 1188, 48 h
Description: Antifungal activity against Trichosporon asahii 1188 after 48 hrs by modified standard CSLI M27-A2 method

[29] = test system: Staphylococcus aureus; assay: Bactericidal activity against Staphylococcus aureus H 5996/08 after 48 hrs by microdilution broth method; format: functional; conditions: H 5996/08, 48 h, read-out: MBC>99.9
[30] = test system: Staphylococcus aureus; assay: Bactericidal activity against Staphylococcus aureus CCM 4516/08 after 48 hrs by microdilution broth method; format: functional; conditions: CCM 4516/08, 48 h, read-out: MBC>99.9
[31] = test system: Candida albicans; assay: microbe, parasite or virus in culture; format: functional; conditions: ATCC 44859, 24 h
Description: Antifungal activity against Candida albicans ATCC 44859 after 24 hrs by modified standard CSLI M27-A2 method

[32] = test system: Escherichia coli; assay: Bactericidal activity against Escherichia coli CCM 4517 after 48 hrs by microdilution broth method; format: functional; conditions: CCM 4517, 48 h, read-out: MBC>99.9
[33] = test system: Pseudomonas aeruginosa; assay: Bactericidal activity against Pseudomonas aeruginosa CCM 1961 after 120 hrs by microdilution broth method; format: functional; conditions: CCM 1961, 120 h, read-out: MBC>99.9
[34] = test system: Trichophyton mentagrophytes; assay: Fungicidal activity against Trichophyton mentagrophytes 445 after 120 hrs by modified standard CSLI M27-A2 method; format: functional; conditions: Trichophyton mentagrophytes, 445, 120 h
[35] = test system: Nakaseomyces glabratus; assay: Antifungal activity against Candida glabrata 20/I after 48 hrs by modified standard CSLI M27-A2 method; format: functional
[36] = test system: Staphylococcus epidermidis; assay: microbe, parasite or virus in culture; format: functional; conditions: H 6966/08, 48 h
Description: Antibacterial activity against Staphylococcus epidermidis H 6966/08 after 48 hrs by microdilution broth method

[37] = test system: Staphylococcus aureus; assay: microbe, parasite or virus in culture; format: functional; conditions: H 5996/08, 24 h
Description: Antibacterial activity against Staphylococcus aureus H 5996/08 after 24 hrs by microdilution broth method

[38] = test system: Pseudomonas aeruginosa; assay: microbe, parasite or virus in culture; format: functional; conditions: CCM 1961, 120 h
Description: Antibacterial activity against Pseudomonas aeruginosa CCM 1961 after 120 hrs by microdilution broth method

[39] = test system: Pichia kudriavzevii; assay: Antifungal activity against Candida krusei E28 after 48 hrs by modified standard CSLI M27-A2 method; format: functional; conditions: E28, 48 h
[40] = test system: Staphylococcus aureus; assay: microbe, parasite or virus in culture; format: functional; conditions: CCM 4516/08, 24 h
Description: Antibacterial activity against Staphylococcus aureus CCM 4516/08 after 24 hrs by microdilution broth method

[41] = test system: Candida tropicalis; assay: Fungicidal activity against Candida tropicalis 156 after 48 hrs by modified standard CSLI M27-A2 method; format: functional; conditions: Candida tropicalis, 156, 48 h
[42] = test system: Staphylococcus epidermidis; assay: microbe, parasite or virus in culture; format: functional; conditions: H 6966/08, 24 h
Description: Antibacterial activity against Staphylococcus epidermidis H 6966/08 after 24 hrs by microdilution broth method

[43] = test system: Nakaseomyces glabratus; assay: Antifungal activity against Candida glabrata 20/I after 24 hrs by modified standard CSLI M27-A2 method; format: functional
[44] = test system: Trichosporon asahii; assay: microbe, parasite or virus in culture; format: functional; conditions: Trichosporon asahii, 1188, 24 h
Description: Antifungal activity against Trichosporon asahii 1188 after 24 hrs by modified standard CSLI M27-A2 method

[45] = test system: Enterococcus sp.; assay: Bactericidal activity against Enterococcus sp. J 14365/08 after 48 hrs by microdilution broth method; format: functional; conditions: J 14365/08, 48 h, read-out: MBC>99.9
[46] = test system: Klebsiella pneumoniae; assay: microbe, parasite or virus in culture; format: functional; conditions: D 11750/08, 48 h
Description: Antibacterial activity against Klebsiella pneumoniae D 11750/08 after 48 hrs by microdilution broth method

[47] = test system: Lichtheimia corymbifera; assay: Fungicidal activity against Absidia corymbifera 272 after 48 hrs by modified standard CSLI M27-A2 method; format: functional; conditions: Lichtheimia corymbifera, 272, 48 h
[48] = test system: Klebsiella pneumoniae; assay: Bactericidal activity against Klebsiella pneumoniae D 11750/08 after 24 hrs by microdilution broth method; format: functional; conditions: D 11750/08, 24 h, read-out: MBC>99.9
[49] = test system: Lichtheimia corymbifera; assay: microbe, parasite or virus in culture; format: functional; conditions: Lichtheimia corymbifera, 272, 48 h
Description: Antifungal activity against Absidia corymbifera 272 after 48 hrs by modified standard CSLI M27-A2 method

CCCCCCCCCCCC[N+](C)(C)Cc1ccccc1
0.98 µM: MIC [1] | MIC [5] | MFC [9] | MIC [17] | MBC [19] | MIC95 [20] | MIC95 [23] | MIC95 [26] | MBC [29] | MFC [41] | MBC [45]
3.91 µM: MIC [2] | MIC95 [12] | MFC [25] | MIC95 [38]
7.81 µM: MIC [15] | MBC [33] | MFC [47] | MIC [49]
1.95 µM: MFC [8] | MIC95 [11] | MIC95 [24] | MIC [28] | MBC [30] | MBC [32] | MFC [34]
0.49 µM: MIC95 [3] | MIC [4] | MFC [6] | MBC [7] | MIC95 [10] | MIC [13] | MIC95 [16] | MFC [18] | MIC95 [21] | MIC [22] | MIC [27] | MIC [31] | MIC [35] | MIC95 [36] | MIC95 [37] | MIC [39] | MIC95 [40] | MIC95 [42] | MIC [43] | MIC [44] | MIC95 [46] | MBC [48]
29 µM: IC50 [14]

CCCCCCCCCCCCCCCC[N+](C)(C)Cc1ccccc1
7.81 µM: MIC [1] | MIC [2] | MIC95 [3] | MIC [5] | MFC [9] | MIC [15] | MIC95 [16] | MIC [17] | MBC [19] | MIC [22] | MIC95 [23] | MIC95 [24] | MIC95 [26] | MIC [27] | MIC [28] | MBC [32] | MFC [41] | MIC [44] | MIC95 [46] | MBC [48] | MIC [49]
62.5 µM: MFC [8] | MFC [18] | MFC [25] | MFC [34] | MFC [47]
3.91 µM: MIC [4] | MBC [7] | MBC [29] | MBC [30] | MIC [31] | MIC [35] | MBC [45]
15.6 µM: MIC95 [12]
15 µM: IC50 [14]
0.49 µM: MIC95 [36] | MIC95 [42]
1.95 µM: MFC [6] | MIC95 [10] | MIC [13] | MIC95 [20] | MIC95 [21] | MIC95 [37] | MIC [39] | MIC [43]
31.2 µM: MIC95 [38]
0.98 µM: MIC95 [11] | MIC95 [40]
125 µM: MBC [33]
